Data taken from article PMC5146860, “Succinate production positively correlates with the affinity of the global transcription factor Cra for its effector FBP in Escherichia coli” (Biotechnology for Biofuels, 2016).

Columns and labels:
Experiment in all cases: isothermal titration calorimetry
[1] = biological target: T1, Cra (catabolite repressor/activator; FruR) (Escherichia coli, UniProt P0ACP1); details: 25 °C; 50 mM FBP injected into 15 μM protein (Fig. 5 legend prints 15 mM); effector-binding site
T1 construct: 2IKS is effector-free regulatory domain used for docking

[2] = biological target: T2, Cra (catabolite repressor/activator; FruR) (Escherichia coli, UniProt P0ACP1, N73Y/D148R/G274R); details: 25 °C; 50 mM FBP injected into 15 μM protein (Fig. 5 legend prints 15 mM); effector-binding site; mutant of strain Tang1688
T2 construct: 2IKS is effector-free regulatory domain used for docking

[3] = biological target: T3, Cra (catabolite repressor/activator; FruR) (Escherichia coli, UniProt P0ACP1, D101R/D148R/G274R); details: 25 °C; 50 mM FBP injected into 15 μM protein (Fig. 5 legend prints 15 mM); effector-binding site; mutant of strain Tang1683
T3 construct: 2IKS is effector-free regulatory domain used for docking

[4] = biological target: T4, Cra (catabolite repressor/activator; FruR) (Escherichia coli, UniProt P0ACP1, D148R/A248F/G274R); details: 25 °C; 50 mM FBP injected into 15 μM protein (Fig. 5 legend prints 15 mM); effector-binding site; mutant of strain Tang1684
T4 construct: 2IKS is effector-free regulatory domain used for docking

O=P(O)(O)OC[C@H]1OC(O)(COP(=O)(O)O)[C@@H](O)[C@@H]1O (stereo partly shown) [fructose-1,6-bisphosphate]
Kd [1]: 1360 ± 6.2 nM
Kd [2]: 809.1 ± 4.6 nM
Kd [3]: 154 ± 4.3 nM
Kd [4]: 728.3 ± 3.8 nM
